Reference: the supplement of paper PMC10307832

Compound: CN1CCN(c2ccc3nc(-c4c(N)c5c(F)cccc5[nH]c4=O)[nH]c3c2)CC1 [Dovitinib] + CS(=O)(=O)N1CCN(Cc2cc3nc(-c4cccc5[nH]ncc45)nc(N4CCOCC4)c3s2)CC1 [Pictilisib] (partner 1 µM)
Test: relative viability (nuclei count vs DMSO), 5 days (fraction); higher = more cells survive
In short: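 Relative viability equals treated-well nuclei counts divided by vehicle-well nuclei counts. Counts came from 4× images of lung cancer cell lines grown in 1536-well plates for 5 days after pin-tool dosing on the day after seeding. Dosing used one drug alone or a fixed anchor-drug dose plus five library-drug doses (not always all listed) in √10 steps, and values are medians of duplicate plates.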

| Cell Line | relative viability (first compound 0.02 µM) | relative viability (first compound 0.06325 µM) | relative viability (first compound 0.6325 µM) | relative viability (first compound 2 µM) | relative viability (first compound 0.2 µM) |
| --- | --- | --- | --- | --- | --- |
| 201T | 0.725 | 0.692 | 0.702 | 0.658 | – |
| A549 | 0.412 | 0.474 | 0.488 | 0.463 | 0.541 |
| A-427 | 0.724 | 0.625 | 0.585 | 0.774 | 0.573 |
| ABC-1 | 0.697 | 0.664 | 0.872 | 0.78 | 0.826 |
| BEN | 0.565 | 0.548 | 0.661 | 0.493 | 0.553 |
| CAL-12T | 0.664 | 0.3 | 0.528 | 0.722 | 0.295 |
| COR-L23 | 0.733 | 0.75 | 0.838 | 0.904 | 0.813 |
| COR-L 105 | 0.362 | 0.356 | 0.439 | 0.529 | 0.365 |
| Calu-6 | 0.931 | 0.885 | 0.893 | 1 | 0.913 |
| ChaGo-K-1 | 0.653 | 0.654 | 0.883 | 0.972 | 0.829 |
| EBC-1 | 0.422 | 0.35 | 0.342 | 0.453 | 0.336 |
| EKVX | 0.451 | 0.366 | 0.506 | 0.463 | 0.462 |
| EMC-BAC-2 | 0.515 | 0.516 | 0.512 | 0.56 | 0.497 |
| EPLC-272H | 0.35 | 0.277 | 0.383 | 0.353 | 0.311 |
| H3255 | 0.539 | 0.514 | 0.516 | 0.514 | 0.498 |
| HARA | 0.372 | 0.259 | 0.398 | 0.417 | 0.367 |
| HCC-15 | 0.827 | 0.742 | 0.82 | 0.722 | 0.767 |
| HCC-44 | 0.516 | 0.594 | 0.62 | 0.591 | 0.642 |
| HCC-78 | 0.206 | – | 0.272 | 0.213 | 0.24 |
| HCC-366 | 0.172 | 0.123 | 0.137 | 0.186 | 0.159 |
| HCC-827 | 0.932 | 0.942 | 0.963 | 1.01 | 1.07 |
| HOP-62 | 0.578 | 0.753 | 0.665 | 0.632 | 0.605 |
| IA-LM | 0.412 | 0.333 | 0.279 | 0.337 | 0.481 |
| LC-2-ad | 0.535 | 0.463 | 0.439 | 0.36 | 0.446 |
| LCLC-97TM1 | 0.361 | 0.135 | 0.205 | 0.207 | 0.215 |
| LCLC-103H | 0.661 | 0.555 | 0.614 | 0.577 | 0.645 |

| Cell Line | relative viability (first compound 0.02 µM) | relative viability (first compound 0.06325 µM) | relative viability (first compound 0.6325 µM) | relative viability (first compound 2 µM) | relative viability (first compound 0.2 µM) |
| --- | --- | --- | --- | --- | --- |
| LK-2 | 0.525 | 0.546 | 0.516 | 0.57 | 0.475 |
| LOU-NH91 | 0.523 | 0.553 | 0.518 | 0.535 | 0.526 |
| LU99A | 0.312 | 0.323 | 0.359 | 0.34 | 0.336 |
| LXF-289 | 0.716 | 0.801 | 0.862 | 0.783 | 0.842 |
| NCI-H23 | 0.44 | 0.444 | 0.493 | 0.433 | 0.451 |
| NCI-H322M | 0.501 | 0.446 | 0.542 | 0.674 | 0.464 |
| NCI-H358 | 0.343 | 0.308 | 0.356 | 0.45 | 0.367 |
| NCI-H441 | 0.521 | 0.528 | 0.477 | 0.47 | 0.517 |
| NCI-H460 | 0.32 | 0.26 | 0.335 | 0.344 | 0.342 |
| NCI-H520 | 0.203 | 0.247 | 0.269 | 0.227 | 0.337 |
| NCI-H596 | 0.372 | 0.394 | 0.387 | 0.428 | 0.376 |
| NCI-H647 | 0.285 | 0.413 | 0.414 | 0.419 | 0.457 |
| NCI-H650 | 0.867 | 0.789 | 0.758 | 1.01 | 0.931 |
| NCI-H661 | 0.427 | 0.465 | 0.427 | 0.359 | 0.455 |
| NCI-H727 | 0.456 | 0.379 | 0.427 | 0.395 | 0.423 |
| NCI-H838 | 0.458 | 0.431 | 0.466 | 0.503 | 0.499 |
| NCI-H1299 | 0.897 | 0.8 | 0.626 | 0.789 | 0.69 |
| NCI-H1355 | 0.459 | 0.305 | 0.479 | 0.48 | 0.478 |
| NCI-H1395 | 0.563 | 0.518 | 0.783 | 0.612 | 0.651 |
| NCI-H1437 | 0.512 | 0.537 | 0.494 | 0.464 | 0.434 |
| NCI-H1563 | 0.631 | 0.629 | 0.635 | 0.672 | 0.685 |
| NCI-H1650 | 0.62 | 0.577 | 0.608 | 0.678 | 0.654 |
| NCI-H1651 | 0.577 | 0.528 | 0.551 | 0.5 | 0.598 |
| NCI-H1666 | 0.607 | 0.533 | 0.322 | 0.375 | 0.548 |
| NCI-H1703 | 0.215 | 0.24 | 0.232 | 0.208 | 0.294 |
| NCI-H1734 | 0.475 | 0.457 | 0.437 | 0.397 | 0.413 |

| Cell Line | relative viability (first compound 0.02 µM) | relative viability (first compound 0.06325 µM) | relative viability (first compound 0.6325 µM) | relative viability (first compound 2 µM) | relative viability (first compound 0.2 µM) |
| --- | --- | --- | --- | --- | --- |
| NCI-H1755 | 0.494 | 0.399 | 0.452 | 0.46 | 0.465 |
| NCI-H1792 | 0.315 | 0.205 | 0.288 | 0.291 | 0.294 |
| NCI-H1793 | 0.395 | 0.282 | 0.375 | 0.31 | 0.419 |
| NCI-H1915 | 0.877 | 0.893 | 0.891 | 0.961 | 0.912 |
| NCI-H1944 | 0.325 | 0.332 | 0.33 | 0.36 | 0.335 |
| NCI-H1975 | 0.299 | 0.271 | 0.324 | 0.274 | 0.325 |
| NCI-H1993 | 0.762 | 0.886 | 0.819 | 0.787 | 0.825 |
| NCI-H2009 | 0.781 | 0.74 | 0.854 | 0.725 | 0.795 |
| NCI-H2023 | 0.216 | 0.206 | 0.261 | 0.212 | 0.236 |
| NCI-H2085 | 0.553 | 0.465 | 0.502 | 0.451 | 0.443 |
| NCI-H2087 | 1.05 | 0.907 | 0.907 | 0.892 | 0.845 |
| NCI-H2126 | 0.476 | 0.462 | 0.559 | 0.504 | 0.463 |
| NCI-H2170 | 0.268 | 0.337 | 0.265 | 0.322 | 0.318 |
| NCI-H2228 | 0.317 | 0.345 | 0.462 | 0.271 | 0.335 |
| NCI-H2347 | 0.888 | 0.676 | 0.895 | 0.677 | 0.947 |
| NCI-H2405 | 0.431 | 0.372 | 0.456 | 0.408 | 0.458 |
| NCI-H3122 | 0.793 | 0.588 | 0.603 | 0.66 | 0.47 |
| PC-3 [JPC-3] | 0.742 | 0.75 | 0.897 | 0.877 | 0.818 |
| PC-14 | 0.632 | 0.72 | 0.691 | 0.543 | 0.685 |
| RERF-LC-KJ | 0.556 | 0.643 | 0.428 | 0.49 | 0.472 |
| SK-LU-1 | 0.64 | 0.657 | 0.73 | 0.576 | 0.513 |
| SK-MES-1 | 0.354 | 0.359 | 0.36 | 0.327 | 0.349 |
| SW 1573 | 0.487 | 0.545 | 0.382 | 0.512 | 0.483 |
| UMC-11 | 0.806 | 0.783 | 0.85 | 0.735 | 0.85 |
